Results as given in US9815840B2 (CJ Healthcare Corporation, priority 2013, dated 2017).

These compounds were tested against c-Met (Homo sapiens (Human), UniProt P08581) (assay: Analysis of the inhibition of c-Met activity (ADP-Glo Kinase Assay)). Details: c-Met enzyme 2 ng/μL, 250 μM G4Y1 peptide, 50 μM ATP, 1 hour at room temperature, luminescence.
Assay type: biochemical
Protocol: Analysis of the Inhibition of c-Met Activity (ADP-Glo™ Kinase Assay
The inhibitory effect of the compounds of the present invention on the activity of c-Met was confirmed as follows.
Specifically, 250 μM G4Y1 peptide, which serves as a substrate for c-Met enzyme (2 ng/μL), and 50 μM ATP were subjected to an enzyme reaction in a reaction buffer (40 mM Tris-HCl (pH 7.5), 20 mM MgCl2, 0.1 mg/mL bovine serum albumin, and 50 μM DTT). The compounds prepared in Examples and comparative compounds were treated at various concentrations and reacted at room temperature for 1 hour, sequentially added with ADP-Glo™ Reagent and the Kinase detection reagent, and reacted at room temperature for 40 minutes and 30 minutes, respectively.
Then, luminescence of the compounds was measured using the Wallaac Victor 2™ (PerkinElmer life sciences, 1420-042). The activity of c-Met inhibitors was evaluated by analyzing the data based on the measured RLU values. The activity of c-Met inhibitors was evaluated as the percentage of remaining activity of the c-Met enzyme in the samples treated with the compounds at concentrations to be tested, with the RLU value of the sample set at 100% control group.

Chain of c-Met (P08581 25-1390): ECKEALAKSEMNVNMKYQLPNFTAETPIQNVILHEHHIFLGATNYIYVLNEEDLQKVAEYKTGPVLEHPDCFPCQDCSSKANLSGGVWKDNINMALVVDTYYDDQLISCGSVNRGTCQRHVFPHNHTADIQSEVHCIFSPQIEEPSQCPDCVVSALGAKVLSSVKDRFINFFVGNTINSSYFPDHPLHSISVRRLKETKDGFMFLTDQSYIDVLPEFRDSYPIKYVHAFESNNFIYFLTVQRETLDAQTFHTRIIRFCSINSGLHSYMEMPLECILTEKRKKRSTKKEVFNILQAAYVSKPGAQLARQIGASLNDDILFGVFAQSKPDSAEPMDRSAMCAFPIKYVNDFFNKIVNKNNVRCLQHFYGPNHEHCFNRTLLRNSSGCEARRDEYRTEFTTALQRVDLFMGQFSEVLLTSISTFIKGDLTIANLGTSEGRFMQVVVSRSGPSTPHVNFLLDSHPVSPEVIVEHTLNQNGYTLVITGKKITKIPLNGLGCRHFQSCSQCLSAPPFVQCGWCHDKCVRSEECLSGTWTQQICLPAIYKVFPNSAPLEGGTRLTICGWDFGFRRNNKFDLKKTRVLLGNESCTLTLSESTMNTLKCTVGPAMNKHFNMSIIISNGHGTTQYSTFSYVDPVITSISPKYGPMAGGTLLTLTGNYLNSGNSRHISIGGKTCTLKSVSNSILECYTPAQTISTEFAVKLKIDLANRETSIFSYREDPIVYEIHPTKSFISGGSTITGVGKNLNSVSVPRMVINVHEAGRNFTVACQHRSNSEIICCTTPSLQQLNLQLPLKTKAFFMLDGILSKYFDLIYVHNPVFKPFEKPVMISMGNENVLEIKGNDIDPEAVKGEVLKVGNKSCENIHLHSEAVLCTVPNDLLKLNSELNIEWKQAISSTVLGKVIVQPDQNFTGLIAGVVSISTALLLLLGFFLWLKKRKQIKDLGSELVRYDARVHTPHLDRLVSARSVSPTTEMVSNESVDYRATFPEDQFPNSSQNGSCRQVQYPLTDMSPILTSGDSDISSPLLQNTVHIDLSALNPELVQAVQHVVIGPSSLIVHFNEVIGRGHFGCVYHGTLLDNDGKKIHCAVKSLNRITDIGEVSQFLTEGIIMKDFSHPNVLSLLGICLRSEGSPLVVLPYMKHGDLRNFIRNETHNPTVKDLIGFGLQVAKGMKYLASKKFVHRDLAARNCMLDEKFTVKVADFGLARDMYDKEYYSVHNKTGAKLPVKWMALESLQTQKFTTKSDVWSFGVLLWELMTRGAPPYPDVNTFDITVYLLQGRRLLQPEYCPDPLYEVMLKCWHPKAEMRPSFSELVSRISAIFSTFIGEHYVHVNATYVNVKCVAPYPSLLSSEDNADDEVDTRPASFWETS

IC50, < 40 nM:
CCOc1ccn(-c2ccc(F)cc2)c(=O)c1C(=O)Nc1ccc(Oc2ccnn3ccc(-c4ccncc4)c23)c(F)c1 [Example 7]
CCOc1ccn(-c2ccc(F)cc2)c(=O)c1C(=O)Nc1ccc(Oc2ccnn3ccc(-c4cccc(C=O)c4)c23)c(F)c1 [Example 23, 4-ethoxy-N-(3-fluoro-4-((5-(3-formylphenyl)pyrrolo[1,2-b]pyridazin-4-yl)oxy)phenyl)-1-(4-fluorophenyl)-2-oxo-1,2-dihydropyridin-3-carboxamide]
O=C(Nc1ccc(Oc2ccnn3ccc(-c4cccc(CO)c4)c23)c(F)c1)c1cccn(-c2ccc(F)cc2)c1=O [Example 29]
CCOc1ccn(-c2ccc(F)cc2)c(=O)c1C(=O)Nc1ccc(Oc2ccnn3ccc(-c4cccc(C(C)(C)O)c4)c23)c(F)c1 [Example 43, 4-ethoxy-N-(3-fluoro-4-((5-(3-(2-hydroxypropan-2-yl)phenyl)pyrrolo[1,2-b]pyridazin-4-yl)oxy)phenyl)-1-(4-fluorophenyl)-2-oxo-1,2-dihydropyridin-3-carboxamide]
CCOc1ccn(-c2ccc(F)cc2)c(=O)c1C(=O)Nc1ccc(Oc2ccnn3ccc(-c4cccc(C(C)O)c4)c23)c(F)c1 (centres unmarked) [Example 46, 4-ethoxy-N-(3-fluoro-4-((5-(3-(1-hydroxyethyl)phenyl)pyrrolo[1,2-b]pyridazin-4-yl)oxy)phenyl)-1-(4-fluorophenyl)-2-oxo-1,2-dihydropyridin-3-carboxamide]
CC(O)c1cccc(-c2ccn3nccc(Oc4ccc(NC(=O)c5cccn(-c6ccc(F)cc6)c5=O)cc4F)c23)c1 (centres unmarked) [Example 47, N-(3-fluoro-4-((5-(3-(1-hydroxyethyl)phenyl)pyrrolo[1,2-b]pyridazin-4-yl)oxy)phenyl)-1-(4-fluorophenyl)-2-oxo-1,2-dihydropyridin-3-carboxamide]
CCOc1ccn(-c2ccc(F)cc2)c(=O)c1C(=O)Nc1ccc(Oc2ccnn3ccc(-c4cccc(CN5CCOCC5)c4)c23)c(F)c1 [Example 49]
CCOc1ccn(-c2ccc(F)cc2)c(=O)c1C(=O)Nc1ccc(Oc2ccnn3ccc(-c4cccc(C(=O)N5CCOCC5)c4)c23)c(F)c1 [Example 50, 4-ethoxy-N-(3-fluoro-4-((5-(3-morpholin-4-carbonylphenyl)pyrrolo[1,2-b]pyridazin-4-yl)oxy)phenyl)-1-(4-fluorophenyl)-2-oxo-1,2-dihydropyridin-3-carboxamide]
CCOc1ccn(-c2ccc(F)cc2)c(=O)c1C(=O)Nc1ccc(Oc2ccnn3ccc(-c4cccc(N)c4)c23)c(F)c1 [Example 53, 4-ethoxy-N-(3-fluoro-4-((5-(3-aminophenyl)pyrrolo[1,2-b]pyridazin-4-yl)oxy)phenyl)-1-(4-fluorophenyl)-2-oxo-1,2-dihydropyridin-3-carboxamide]
CCOc1ccn(-c2ccc(F)cc2)c(=O)c1C(=O)Nc1ccc(Oc2ccnn3ccc(-c4cccc(CN(C)C)c4)c23)c(F)c1 [Example 56, N-(4-((5-(3-((dimethylamino)methyl)phenyl)pyrrolo[1,2-b]pyridazin-4-yl)oxy)-3-fluorophenyl)-4-ethoxy-1-(4-fluorophenyl)-2-oxo-1,2-dihydropyridin-3-carboxamide]
Cc1ccc(-c2ccn3nccc(Oc4ccc(NC(=O)C5(C(=O)Nc6ccc(F)cc6)CC5)cc4F)c23)cc1N [Example 78]
Cc1c(N)cccc1-c1ccn2nccc(Oc3ccc(NC(=O)C4(C(=O)Nc5ccc(F)cc5)CC4)cc3F)c12 [Example 79]
COc1ccc(-c2ccn3nccc(Oc4ccc(NC(=O)C5(C(=O)Nc6ccc(F)cc6)CC5)cc4F)c23)cc1N [Example 82]
Nc1ccc(F)c(-c2ccn3nccc(Oc4ccc(NC(=O)C5(C(=O)Nc6ccc(F)cc6)CC5)cc4F)c23)c1 [Example 83]
